Measurements reported in US20260345459A1, “SUBMICRON PARTICLE COMPRISING A PEPTIDE ACTIVE, PREPARATION METHOD AND USES THEREOF, IN PARTICULAR COSMETIC USES” (Sederma, priority 2023, published 2026).
Each block holds one compound with its values, some of them ahead of it. Residues, ends and D or L forms follow the SMILES beside them. No end group written: not given here. *: point of attachment. Palmitoyl = CCCCCCCCCCCCCCCC(=O)*; Lauroyl = CCCCCCCCCCCC(=O)*

Tests used:
[1] = Accelerated stability at 40 °C; assay type: physicochemical
Protocol: (§1) For these studies, encapsulated peptide formulations were stored in HDPE polyethylene bottles at the study temperature (room temperature and 40 °C). At each analysis time, a new 30 g bottle is opened for the first time. All the samples are handled under regular laboratory lighting and normal air conditions. No inert gas is used to fill the bottles or to handle the samples.
The study was performed at 40 °C. At this temperature, degradation is accelerated. There is a correlation with degradation at room temperature, 90 days at 40 °C being equivalent to 1 year at room temperature. This study thus constitutes a good indicator of the stability of the encapsulated peptide suspensions according to the invention.

[2] = Stability at room temperature; assay type: physicochemical
Protocol: as §1
The following encapsulated peptides were monitored: Pal-KTTKS, Pal-GHK, Pal-GQPR, Pal-KTFK, Pal-KMO2K, Pal-VGVAPG and Pal-PP.

[3] = Trypsin digestion: proof of encapsulation and half-life; assay type: in vitro ADME; conditions: role: substrate; 0.003% trypsin, acetate buffer pH=5, 25 °C, peptide 100 ppm; read-out: T1/2 (loss of 50% of the initial content)
Protocol: The study was performed on a suspension of Pal-KTTKS encapsulated according to the invention, using trypsin, an enzyme that hydrolyses a peptide whose sequence contains the amino acid lysine. The peptide is placed in the presence of trypsin and the amount of peptide remaining, i.e. not hydrolysed by trypsin, is measured as a function of time. Only the peptide released from the capsule over time is susceptible to hydrolysis.
At T0, measurements make it possible to confirm that the peptide is encapsulated.
The kinetics will then make it possible to determine the half-life, which constitutes an indicator of the peptide's accessibility to the enzyme, and therefore an indicator of the peptide's protection by the capsule.
Two solutions are compared: one containing the encapsulated peptide (100 ppm) and the other the free (i.e. non-encapsulated) peptide, also at 100 ppm. Acetate buffer solution at pH=5 containing 0.003% trypsin is added. The samples are heated to 25 °C. The enzymatic reaction is stopped to perform the measurements by adding isopropyl alcohol. Peptide quantification is performed by HPLC using the method described in paragraph B 1-4 above.
Hydrolysis monitoring is performed under the chromatographic analysis conditions described in paragraph B 1-4 above.

[4] = Characterization of the obtained suspensions at T0 (macroscopic, pH, laser diffraction particle size, polydispersity, HPLC peptide content); assay type: physicochemical; conditions: different derivatization, peptide 100 ppm
Protocol: For each suspension, the presence or absence of heterogeneous aspects, phase separation or precipitation, and colour are visually assessed through a colourless transparent bottle without the use of any instruments. The viscosity is also estimated visually in comparison with water.
The pH was measured directly in the formulation (without dilution) using a calibrated potentiometer (pH 4.0 and 7.0).
Laser diffraction technique (Mastersizer 3000™, Malvern). The suspension is added directly to the water-containing wet dispersion unit until darkening in the 2-8% range. The refractive index used is 1.456, corresponding to the index of wax, i.e. cetyl palmitate. The results are expressed in D50 corresponding to particle diameters at the 50th percentile of the particle size distribution curve, representing the mean particle size.
A range of less than 2 is considered as a narrow distribution, describing particle size homogeneity.
This is quantified using an HPLC chromatography method, with a column, mobile phase and detection appropriate to each peptide active agent. An external calibration curve is produced.
Each suspension is treated by liquid/liquid extraction of a mixture composed of isopropanol, a pH 2-2.5 buffer and an organic solvent (acetonitrile or methanol) depending on the peptide to be dosed.
For Pal-KTTKS, Pal-GHK, Pal-GQPR and Pal-VGVAPG peptides, quantification is performed, for example, by HPLC at 35 °C using a Waters Symmetry™ C18 5 μm 4.6×150 mm HPLC column, a mobile phase consisting of an eluent of 99.8/0.1/0.1 v/v/v water/orthosphoric acid/triethylamine and acetonitrile. Detection is performed at 210 nm.
For the Pal-PP peptide, for example, analysis is performed at 40 °C using a Macherey Nagel™ EC 125/4 Nucleodur 100-5 C8 ec column, a mobile phase consisting of a 99.8/0.1/0.1 v/v/v water/orthosphoric acid/triethylamine and acetonitrile eluent. Detection is performed at 210 nm. […]

[5] = different derivatization, peptide 100 ppm, 1 month at 40 °C
[6] = TA1 decyl glucoside, RT, 3 months

- Stability over time ([2]; 2.5% wax, RT, 6 months): Yes
- Stability over time ([2]; 5% wax, RT, 6 months): Yes
- Stability over time [2, 6]: Yes (3 months)
- Stability over time ([2]; TA1 lauryl glucoside, RT, 12 months): Yes (12 months)
- stability duration ([2]; room temperature, encapsulated): up to 1 year
- Stability over time [1, 5]: Yes
- half-life [3]: 1 h
Compound: CCCCCCCCCCCCCCCC(=O)N[C@@H](CCCCN)C(=O)N[C@H](C(=O)N[C@H](C(=O)N[C@@H](CCCCN)C(=O)N[C@@H](CO)C(=O)O)[C@@H](C)O)[C@@H](C)O [Pal-KTTKS] (Palmitoyl-KTTKS-OH)

- Stability over time [1, 5]: Yes
Compound: CCCCCCCCCCCC(=O)N[C@@H](CCCCN)C(=O)N[C@H](C(=O)N[C@@H](CO)C(=O)N[C@@H](CCCCN)C(=O)N[C@@H](CO)C(=O)O)[C@@H](C)O [Lauroyl-KTSKS] (Lauroyl-KTSKS-OH)

The next lines start with the compound.

Compound: CCCCCCCC(=O)N[C@H](C(=O)N[C@@H](Cc1c[nH]c2ccccc12)C(=O)O)[C@@H](C)CC [Octanoyl-IW]
- Stability over time [1, 5]: Yes

Compound: KTTKS [H-KTTKS]
- Stability over time [1, 5]: Yes

Compound: CCCCCCCCCCCCCCCC(=O)NCC(=O)N[C@@H](Cc1c[nH]cn1)C(=O)N[C@@H](CCCCN)C(=O)O [Pal-GHK] (Palmitoyl-Gly-His-Lys-OH)
- Stability over time ([2]; 10% glycerol, 1 month): Yes
- Stability over time ([2]; TA1 + TA2 (Lipoid P75-3), 3 months at RT): Yes
- Stability over time [2, 6]: Yes (3 months)
- Stability over time ([2]; TA1 lauryl glucoside, RT, 3 months): Yes (3 months)
- Stability over time ([2]; TA1 only, without TA2, 3 months at RT): Yes
- Stability over time ([2]; peptide content 100 ppm, RT, 1 month): Yes
- Stability over time ([2]; peptide content 500 ppm, RT, 1 month): Yes
- Stability over time ([2]; peptide content 1000 ppm, RT, 1 month): Yes
- Stability over time ([2]; without glycerol, 1 month): Yes
- Stability over time ([1]; TA1 + TA2 (Lipoid P75-3), 3 months at 40 °C): Yes
- Stability over time ([1]; TA1 only, without TA2, 3 months at 40 °C): No: Phase

Compound: CCCCCCCCCCCCCCCCOC(=O)[C@H](CCCNC(=N)N)NC(=O)[C@H](Cc1ccc(O)cc1)NC(C)=O [N-Acetyl-YR-O-hexadecyl ester, Acetyl-Tyr-Arg-hexadecyl ester]
- D50 [4]: D50 (μm) = 0.234
- Formation of a suspension of submicron particles [4]: Yes
- pH [4]: pH 8.70
- D50 [1, 5]: D50 (μm) = 0.237
- Stability over time [1, 5]: Yes
- pH [1, 5]: pH 8.70
